Experimental data reported in patent publication US8574563B2 (Bristol-Myers Squibb Company, priority 2006, dated 2013).
pEC50: −log10 of the molar value. Read-outs that look alike come from different tables or passages of the source.

Test system: HCV 1b-377-neo replicon cells
Experiment: HCV replicon assay, HCV 1b-377-neo replicon cells (1b FRET)
Format: cell-based, Hepatitis C virus genotype 1b
Details: HCV 1b-377-neo replicon cells, HCV 1b genotype, read-out: EC50 range against HCV 1b (Table 2, Range)
Description: An HCV Replion assay was utilized in the present disclosure, and was prepared, conducted and validated as described in commonly owned PCT/US2006/022197 and in O'Boyle et. al. Antimicrob Agents Chemother. 2005 April; 49(4):1346-53.
HCV 1b-377-neo replicon cells were used to test the currently described compound series as well as cells resistant to compound A due to a Y2065H mutation in NS5A (described in application PCT/US2006/022197). The compounds tested were determined to have more than 10-fold less inhibitory activity on cells resistant to compound A than wild-type cells indicating a related mechanism of action between the two compound series. Thus, the compounds of the present disclosure can be effective to inhibit the function of the HCV NS5A protein and are understood to be as effective in combinations as previously described in application PCT/US2006/022197 and commonly owned WO/04014852. Further, the compounds of the present disclosure can be effective against the HCV 1b genotype. It should also be understood that the compounds of the present disclosure can inhibit multiple genotypes of HCV. […] In one embodiment compounds of the present disclosure are active against the 1a, 1b, 2a, 2b, 3a, 4a, and 5a genotypes.

| Compound | pEC50 (Hepatitis C virus) | pEC50 |
| --- | --- | --- |
| O=C([C@H]1CCCO1)N1CCC[C@H]1c1ncc(-c2ccc(-c3ccc(-c4cnc([C@@H]5CCCN5C(=O)[C@@H](c5ccccc5)N5CCCCC5)[nH]4)cc3)cc2)[nH]1 [Example 28-2, 1-((1R)-2-oxo-1-phenyl-2-((2S)-2-(5-(4′-(2-((2S)-1-((2R)-tetrahydro-2-furanylcarbonyl)-2-pyrrolidinyl)-1H-imidazol-5-yl)-4-biphenylyl)-1H-imidazol-2-yl)-1-pyrrolidinyl)ethyl)piperidine] | 9.00 to 12.00 | – |
| CN[C@H](C(=O)N1CCC[C@H]1c1nc(-c2ccc(-c3ccc(-c4cnc([C@@H]5CCCN5C(=O)[C@@H](NC)C(C)C)[nH]4)cc3)cc2)c[nH]1)C(C)C [Example F34, (2S)-N,3-dimethyl-1-((2S)-2-(4-(4′-(2-((2S)-1-((2S)-3-methyl-2-(methylamino)butanoyl)-2-pyrrolidinyl)-1H-imidazol-5-yl)-4-biphenylyl)-1H-imidazol-2-yl)-1-pyrrolidinyl)-1-oxo-2-butanamine] | 7.00 to 9.00 | – |
| COC(=O)N[C@@H](C(=O)N1[C@@H](C)CC[C@H]1c1nc(-c2ccc(-c3ccc(-c4c[nH]c([C@@H]5CC[C@H](C)N5C(=O)[C@H](NC(=O)OC)c5ccccc5)n4)cc3)cc2)c[nH]1)c1ccccc1 [Example M153, dimethyl (4,4′-biphenyldiylbis(1H-imidazole-4,2-diyl((2S,5S)-5-methyl-2,1-pyrrolidinediyl)((1R)-2-oxo-1-phenyl-2,1-ethanediyl)))biscarbamate] | 9.00 to 12.00 | – |
| CN(C)[C@@H](C(=O)N1CCC[C@H]1c1ncc(-c2ccc(-c3ccc(-c4cnc([C@@H]5CCCN5C(=O)C5(C(F)(F)F)CC5)[nH]4)cc3)cc2)[nH]1)c1ccccc1 [Example 94-30, (1R)-N,N-dimethyl-2-oxo-1-phenyl-2-((2S)-2-(5-(4′-(2-((2S)-1-((1-(trifluoromethyl)cyclopropyl)carbonyl)-2-pyrrolidinyl)-1H-imidazol-5-yl)-4-biphenylyl)-1H-imidazol-2-yl)-1-pyrrolidinyl)ethanamine] | 9.00 to 12.00 | – |
| CC1(O)CCN([C@@H](C(=O)N2CCC[C@H]2c2ncc(-c3ccc(-c4ccc(-c5cnc([C@@H]6CCCN6C(=O)[C@@H](c6ccccc6)N6CCC(C)(O)CC6)[nH]5)cc4)cc3)[nH]2)c2ccccc2)CC1 [Example 24-2, 1,1′-(4,4′-biphenyldiylbis(1H-imidazole-5,2-diyl(2S)-2,1-pyrrolidinediyl((1R)-2-oxo-1-phenyl-2,1-ethanediyl)))bis(4-methyl-4-piperidinol)] | 9.00 to 12.00 | – |
| CCN(CC)[C@@H](C(=O)N1CCC[C@H]1c1ncc(-c2ccc(-c3ccc(-c4cnc([C@@H]5CCCN5C(=O)CC(Cc5ccccc5F)NC(=O)OC)[nH]4)cc3)cc2)[nH]1)c1ccccc1 (stereo in doubt) [cj-59, methyl ((1S)-3-((2S)-2-(5-(4′-(2-((2S)-1-((2R)-2-(diethylamino)-2-phenylacetyl)-2-pyrrolidinyl)-1H-imidazol-5-yl)-4-biphenylyl)-1H-imidazol-2-yl)-1-pyrrolidinyl)-1-(2-fluorobenzyl)-3-oxopropyl)carbamate] | 9.00 to 12.00 | – |
| COC(=O)N[C@@H](C(=O)N(C)[C@@H](C)c1ncc(-c2ccc(-c3ncc(-c4cnc([C@@H]5CCCN5C(=O)[C@@H](c5ccccc5)N5CCCCC5)[nH]4)cn3)cc2)[nH]1)c1ccccc1 [Example 152l-1, methyl ((1R)-2-(methyl((1S)-1-(4-(4-(5-(2-((2S)-1-((2R)-2-phenyl-2-(1-piperidinyl)acetyl)-2-pyrrolidinyl)-1H-imidazol-5-yl)-2-pyrimidinyl)phenyl)-1H-imidazol-2-yl)ethyl)amino)-2-oxo-1-phenylethyl)carbamate] | 9.00 to 12.00 | – |
| CC(C)[C@H](NC(=O)OC(C)(C)C)C(=O)N1[C@@H]2C[C@@H]2C[C@H]1c1nc(-c2ccc(-c3ccc(-c4c[nH]c([C@@H]5C[C@H]6C[C@H]6N5C(=O)[C@@H](NC(=O)OC(C)(C)C)C(C)C)n4)cc3)cc2)c[nH]1 [Example M140a-ii, tert-butyl ((1S)-1-(((1R,3S,5R)-3-(4-(4′-(2-((1R,3S,5R)-2-((2S)-2-((tert-butoxycarbonyl)amino)-3-methylbutanoyl)-2-azabicyclo[3.1.0]hex-3-yl)-1H-imidazol-4-yl)-4-biphenylyl)-1H-imidazol-2-yl)-2-azabicyclo[3.1.0]hex-2-yl)carbonyl)-2-methylpropyl)carbamate] | 7.00 to 9.00 | – |
| O=C([C@@H](c1ccccc1)N1CCCCC1)N1CC(F)(F)C[C@H]1c1nc(-c2ccc(-c3ccc(-c4cnc([C@@H]5CCCN5C(=O)[C@@H](c5ccccc5)N5CCCCC5)[nH]4)cc3)cc2)c[nH]1 [Example 24-10, 1-((R)-2-((2S)-2-(4-(4′-(2-((2S)-4,4-difluoro-1-((2R)-2-phenyl-2-(1-piperidinyl)acetyl)-2-pyrrolidinyl)-1H-imidazol-4-yl)-4-biphenylyl)-1H-imidazol-2-yl)-1-pyrrolidinyl)-2-oxo-1-phenylethyl)piperidine] | 9.00 to 12.00 | – |
| Cc1cc(-c2cnc([C@@H]3CCCN3C(=O)[C@@H](c3ccccc3)N(C)C)[nH]2)ccc1-c1ccc(-c2cnc([C@@H]3CCCN3C(=O)[C@@H](c3ccccc3)N(C)C)[nH]2)cn1 [Example 136, (1R)-2-((2S)-2-(5-(6-(4-(2-((2S)-1-((2R)-2-(dimethylamino)-2-phenylacetyl)-2-pyrrolidinyl)-1H-imidazol-5-yl)-2-methylphenyl)-3-pyridinyl)-1H-imidazol-2-yl)-1-pyrrolidinyl)-N,N-dimethyl-2-oxo-1-phenylethanamine] | 9.00 to 12.00 | – |
| COC(=O)NCC(=O)N1[C@@H](C)CC[C@H]1c1nc(-c2ccc(-c3ccc(-c4c[nH]c([C@@H]5CC[C@H](C)N5C(=O)CNC(=O)OC)n4)cc3)cc2)c[nH]1 [Example M155, methyl (2-((2S,5S)-2-(4-(4′-(2-((2S,5S)-1-(((methoxycarbonyl)amino)acetyl)-5-methyl-2-pyrrolidinyl)-1H-imidazol-4-yl)-4-biphenylyl)-1H-imidazol-2-yl)-5-methyl-1-pyrrolidinyl)-2-oxoethyl)carbamate] | 7.00 to 9.00 | – |
| COC(=O)N[C@H](C(=O)N1CCC[C@H]1c1ncc(-c2ccc(-c3ccc(-c4cnc([C@@H]5CCCN5C(=O)[C@@H](NC(=O)OC)C5CC5)[nH]4)cc3)cc2)[nH]1)C1CC1 [Example M23, dimethyl (4,4′-biphenyldiylbis(1H-imidazole-5,2-diyl(2S)-2,1-pyrrolidinediyl((1S)-1-cyclopropyl-2-oxo-2,1-ethanediyl)))biscarbamate] | 7.00 to 9.00 | – |
| COC(=O)N[C@H]1CC[C@@H](C(=O)N2CCC[C@H]2c2ncc(-c3ccc(-c4ccc(-c5cnc([C@@H]6CCCN6C(=O)[C@@H](NC(=O)OC)C(C)C)[nH]5)cc4)cc3)[nH]2)C1 [cj-61, methyl ((1S)-1-(((2S)-2-(5-(4′-(2-((2S)-1-(((1R,3S)-3-((methoxycarbonyl)amino)cyclopentyl)carbonyl)-2-pyrrolidinyl)-1H-imidazol-5-yl)-4-biphenylyl)-1H-imidazol-2-yl)-1-pyrrolidinyl)carbonyl)-2-methylpropyl)carbamate] | 9.00 to 12.00 | – |
| COC(=O)N[C@H](CCc1ccccc1)CC(=O)N1CCC[C@H]1c1ncc(-c2ccc(-c3ccc(-c4cnc([C@@H]5CCCN5C(=O)C[C@@H](CCc5ccccc5)NC(=O)OC)[nH]4)cc3)cc2)[nH]1 [cj-135, dimethyl (4,4′-biphenyldiylbis(1H-imidazole-5,2-diyl(2S)-2,1-pyrrolidinediyl((3R)-1-oxo-5-phenyl-1,3-pentanediyl)))biscarbamate] | 7.00 to 9.00 | – |
| COC(=O)NC1(C(=O)N2CCC[C@H]2c2ncc(-c3ccc(-c4ccc(-c5cnc([C@@H]6CCCN6C(=O)C6(NC(=O)OC)CC6)[nH]5)cc4)cc3)[nH]2)CC1 [Example M6, dimethyl (4,4′-biphenyldiylbis(1H-imidazole-5,2-diyl(2S)-2,1-pyrrolidinediylcarbonyl-1,1-cyclopropanediyl))bis-carbamate] | 5.00 to 6.00 | – |
| C[C@@H](c1ncc(-c2ccc(-c3ccc(-c4cnc([C@@H]5CCCN5C(=O)[C@@H](c5ccccc5)N5CCCCC5)[nH]4)cc3)cc2)[nH]1)N(C)C(=O)[C@@H](c1ccccc1)N1CCCCC1 [Example 24-18-6, (2R)-N-methyl-2-phenyl-N-((1S)-1-(5-(4′-(2-((2S)-1-((2R)-2-phenyl-2-(1-piperidinyl)acetyl)-2-pyrrolidinyl)-1H-imidazol-5-yl)-4-biphenylyl)-1H-imidazol-2-yl)ethyl)-2-(1-piperidinyl)acetamide] | 9.00 to 12.00 | – |
| COC(=O)N[C@@H](C(=O)N1CCC[C@H]1c1ncc(-c2ccc(-c3ccc(-c4cnc([C@@H]5CCCN5C(=O)c5cccnc5)[nH]4)cc3)cc2)[nH]1)c1ccccc1 [Example 68, methyl ((1R)-2-oxo-1-phenyl-2-((2S)-2-(5-(4′-(2-((2S)-1-(3-pyridinylcarbonyl)-2-pyrrolidinyl)-1H-imidazol-5-yl)-4-biphenylyl)-1H-imidazol-2-yl)-1-pyrrolidinyl)ethyl)carbamate] | 9.00 to 12.00 | – |
| COC(=O)N[C@H](C(=O)N1CCC[C@H]1c1ncc(-c2ccc(-c3ccc(-c4cnc([C@@H]5CCCN5C(=O)CC(C)C)[nH]4)cc3)cc2)[nH]1)C(C)C [Example M81, methyl ((1S)-2-methyl-1-(((2S)-2-(5-(4′-(2-((2S)-1-(3-methylbutanoyl)-2-pyrrolidinyl)-1H-imidazol-5-yl)-4-biphenylyl)-1H-imidazol-2-yl)-1-pyrrolidinyl)carbonyl)propyl) carbamate] | – | 6.00 to 7.00 |
